Measurements as given in ChEMBL document CHEMBL1201862, “PubChem BioAssay data set” (2004).
Active and inactive are the calls of the source.

Experiments:
[1] = molecular target: G-protein coupled receptor 35 (Homo sapiens, UniProt Q9HC97); assay: GPR35 antagonists blocking zaprinast-driven arrestin recruitment, primary screen, imaging, U2OS, beta-arrestin-GFP, zaprinast agonist (AID 2058); format: functional;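 also: antagonist potency meaning inhibition of agonist-induced arrestin redistribution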
[2] = molecular target: T1, Corticotropin-releasing factor receptor 2/Corticotropin-releasing factor-binding protein (Homo sapiens, UniProt P24387+Q13324); assay: activators of CRF receptor 2 with binding protein – uHTS hits, confirmation (AID 602473); format: functional; conditions: read-out: EC50_Mean
T1 sequence (Q13324 whole entry): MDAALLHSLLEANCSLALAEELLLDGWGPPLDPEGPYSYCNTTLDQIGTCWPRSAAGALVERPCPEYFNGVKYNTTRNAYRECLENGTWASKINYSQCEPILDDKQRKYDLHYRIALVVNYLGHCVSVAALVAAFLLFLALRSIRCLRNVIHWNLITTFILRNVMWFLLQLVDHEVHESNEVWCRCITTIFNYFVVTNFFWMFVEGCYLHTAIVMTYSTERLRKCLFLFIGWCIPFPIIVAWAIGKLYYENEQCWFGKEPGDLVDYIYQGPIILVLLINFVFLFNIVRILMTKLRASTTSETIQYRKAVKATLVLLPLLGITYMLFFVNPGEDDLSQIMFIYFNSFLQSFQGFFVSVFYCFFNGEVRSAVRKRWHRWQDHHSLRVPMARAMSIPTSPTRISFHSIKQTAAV
T1 sequence (P24387 whole entry): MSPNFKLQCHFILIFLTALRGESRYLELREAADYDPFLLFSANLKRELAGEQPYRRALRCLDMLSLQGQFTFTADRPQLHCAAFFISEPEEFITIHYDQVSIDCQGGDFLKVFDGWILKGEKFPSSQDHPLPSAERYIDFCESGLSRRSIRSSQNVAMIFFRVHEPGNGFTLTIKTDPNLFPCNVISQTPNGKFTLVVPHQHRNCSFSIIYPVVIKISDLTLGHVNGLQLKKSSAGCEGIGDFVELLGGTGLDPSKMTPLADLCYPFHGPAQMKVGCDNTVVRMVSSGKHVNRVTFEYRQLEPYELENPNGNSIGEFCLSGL

Cytochrome P450 2C19 = Cytochrome P450 2C19 (Homo sapiens, UniProt P33261); assay: Cytochrome panel assay with activity outcomes. Panel member name: p450-cyp2c19 Compounds with AC50 equal or less than 10 uM are considered active; format: functional; conditions: read-out: AC50
Cytochrome P450 2D6 = Cytochrome P450 2D6 (Homo sapiens, UniProt P10635);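 also: CYP2D6 member of a cytochrome P450 panel assay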
[3] = molecular target: T2, Short transient receptor potential channel 4 (Mus musculus, UniProt Q9QUQ5); assay: mouse TRPC4 channel inhibitors, dose response, cell-based, HEK293 TRPC4/mu-opioid, Fluo-4 calcium (AID 434942); format: functional;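 also: potency of inhibitors blocking the TRPC4 calcium response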
T2 sequence (Q9QUQ5 whole entry): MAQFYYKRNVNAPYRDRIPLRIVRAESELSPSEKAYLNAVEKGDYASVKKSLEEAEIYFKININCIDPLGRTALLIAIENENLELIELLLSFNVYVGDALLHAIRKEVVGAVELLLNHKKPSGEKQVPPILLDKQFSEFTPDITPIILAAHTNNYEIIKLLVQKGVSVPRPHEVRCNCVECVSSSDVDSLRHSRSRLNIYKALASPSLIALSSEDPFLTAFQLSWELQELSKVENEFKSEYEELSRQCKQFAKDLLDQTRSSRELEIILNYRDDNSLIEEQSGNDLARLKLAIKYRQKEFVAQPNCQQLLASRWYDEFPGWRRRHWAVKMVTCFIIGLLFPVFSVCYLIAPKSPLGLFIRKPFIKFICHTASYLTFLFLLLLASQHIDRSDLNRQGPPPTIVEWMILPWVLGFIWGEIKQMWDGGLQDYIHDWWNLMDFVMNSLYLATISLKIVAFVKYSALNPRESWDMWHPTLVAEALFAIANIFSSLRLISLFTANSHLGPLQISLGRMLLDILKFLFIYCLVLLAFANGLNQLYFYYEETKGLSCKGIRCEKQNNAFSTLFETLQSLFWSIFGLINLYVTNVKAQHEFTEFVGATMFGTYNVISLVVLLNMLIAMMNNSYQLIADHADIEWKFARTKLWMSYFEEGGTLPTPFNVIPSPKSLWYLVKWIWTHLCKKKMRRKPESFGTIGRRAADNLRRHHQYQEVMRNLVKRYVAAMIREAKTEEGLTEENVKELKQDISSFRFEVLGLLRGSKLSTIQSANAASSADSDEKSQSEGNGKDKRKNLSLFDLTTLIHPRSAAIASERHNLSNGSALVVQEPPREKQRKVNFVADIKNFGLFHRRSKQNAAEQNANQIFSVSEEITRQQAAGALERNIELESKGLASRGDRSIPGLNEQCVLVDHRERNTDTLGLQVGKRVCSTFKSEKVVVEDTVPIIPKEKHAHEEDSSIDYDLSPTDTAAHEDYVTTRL

[4] = molecular target: T2, Short transient receptor potential channel 4; assay: mouse TRPC4 channel activators, dose response, cell-based, HEK293 TRPC4/mu-opioid, Fluo-4 calcium (AID 434937); format: functional
Hexokinase = Hexokinase (Trypanosoma brucei, UniProt Q38C41); assay: Confirmation assay for inhibitors of Trypanosoma brucei hexokinase 1-Analogue-first series. [Related pubchem assays (depositor defined):AID1430, AID1632, AID2516, AID2560, AID2579, AID2600, AID449725, AID492951]; format: functional
[5] = molecular target: T3, Mannose-6-phosphate isomerase (Homo sapiens, UniProt P34949); assay: PMI enzyme inhibitors, confirmation, biochemical, fluorescence intensity (AID 1535)
T3 sequence (P34949 whole entry): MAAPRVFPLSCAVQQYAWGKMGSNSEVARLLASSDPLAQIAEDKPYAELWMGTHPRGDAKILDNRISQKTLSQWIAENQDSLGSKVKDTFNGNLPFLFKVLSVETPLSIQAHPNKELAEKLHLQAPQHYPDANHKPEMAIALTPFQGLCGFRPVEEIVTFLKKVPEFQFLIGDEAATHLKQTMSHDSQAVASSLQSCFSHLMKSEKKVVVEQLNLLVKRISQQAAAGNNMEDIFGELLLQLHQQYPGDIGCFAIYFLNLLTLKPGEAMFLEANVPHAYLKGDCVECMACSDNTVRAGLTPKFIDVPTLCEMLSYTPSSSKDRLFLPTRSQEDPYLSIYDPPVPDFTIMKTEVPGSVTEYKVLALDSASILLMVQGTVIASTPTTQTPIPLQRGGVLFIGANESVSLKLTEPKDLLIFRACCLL

Phosphomannomutase 2 = Phosphomannomutase 2 (Homo sapiens, UniProt O15305); assay: Counter screen SAR assay for PMM2 inhibitors via a fluorescence intensity assay. [Related pubchem assays (depositor defined):AID1545, AID1574]
[6] = molecular target: Phosphoethanolamine/phosphocholine phosphatase (Homo sapiens, UniProt Q8TCT1); assay: SAR assay for compounds that inhibit PHOSPHO1. [Related pubchem assays (depositor defined):AID1545, AID1565, AID1574]
[7] = insulin promoter down-regulators in MIN6 cells, imaging, high-content screening, mouse beta cells (AID 1628); format: functional
[8] = cytotoxicity in MIN6 insulinoma cells, dose response, cytotoxicity control, cell-based, mouse insulinoma (AID 2122); format: functional;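 also: confirmatory high-throughput counterscreen run to flag cytotoxic compounds; mouse MIN-6 beta cells carrying an insulin promoter eGFP reporter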
Beta-lactamase [9] = molecular target: Beta-lactamase (Pseudomonas aeruginosa, UniProt Q79MP6);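 also: biochemical dose-response test of metallo-beta-lactamase enzyme inhibition, read out by epi-absorbance; purified recombinant IMP-1 metallo-beta-lactamase with nitrocefin as substrate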
Beta-lactamase [10] = molecular target: Beta-lactamase (Salmonella choleraesuis (strain SC-B67), UniProt Q5J463)
HeLa = assay: HeLa cell cytotoxicity, dose response, cytotoxicity control, 24 h, cherry-picked samples (AID 504726); format: functional, cell-based; conditions: Homo sapiens;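 also: potency for cytotoxicity as loss of luminescence signal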
ORF 73 = ORF 73 (Human herpesvirus 8, UniProt O40947); assay: inhibitors of C-LANA binding to LBS DNA, dose response, biochemical, fluorescence polarization, cherry-picked samples (AID 504725); design: species or system Human gammaherpesvirus 8;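 also: fluorescence polarization of a labeled DNA duplex reporting LANA DNA binding; potency is for inhibitors that block LANA binding to the DNA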
Insulin-degrading enzyme [11] = molecular target: T4, Insulin-degrading enzyme (Homo sapiens, UniProt P14735); assay: activators of recombinant IDE enzyme, dose response, counter-screen for IDE activator project, biochemical, fluorescence polarization (AID 588681)
T4 sequence (P14735 whole entry): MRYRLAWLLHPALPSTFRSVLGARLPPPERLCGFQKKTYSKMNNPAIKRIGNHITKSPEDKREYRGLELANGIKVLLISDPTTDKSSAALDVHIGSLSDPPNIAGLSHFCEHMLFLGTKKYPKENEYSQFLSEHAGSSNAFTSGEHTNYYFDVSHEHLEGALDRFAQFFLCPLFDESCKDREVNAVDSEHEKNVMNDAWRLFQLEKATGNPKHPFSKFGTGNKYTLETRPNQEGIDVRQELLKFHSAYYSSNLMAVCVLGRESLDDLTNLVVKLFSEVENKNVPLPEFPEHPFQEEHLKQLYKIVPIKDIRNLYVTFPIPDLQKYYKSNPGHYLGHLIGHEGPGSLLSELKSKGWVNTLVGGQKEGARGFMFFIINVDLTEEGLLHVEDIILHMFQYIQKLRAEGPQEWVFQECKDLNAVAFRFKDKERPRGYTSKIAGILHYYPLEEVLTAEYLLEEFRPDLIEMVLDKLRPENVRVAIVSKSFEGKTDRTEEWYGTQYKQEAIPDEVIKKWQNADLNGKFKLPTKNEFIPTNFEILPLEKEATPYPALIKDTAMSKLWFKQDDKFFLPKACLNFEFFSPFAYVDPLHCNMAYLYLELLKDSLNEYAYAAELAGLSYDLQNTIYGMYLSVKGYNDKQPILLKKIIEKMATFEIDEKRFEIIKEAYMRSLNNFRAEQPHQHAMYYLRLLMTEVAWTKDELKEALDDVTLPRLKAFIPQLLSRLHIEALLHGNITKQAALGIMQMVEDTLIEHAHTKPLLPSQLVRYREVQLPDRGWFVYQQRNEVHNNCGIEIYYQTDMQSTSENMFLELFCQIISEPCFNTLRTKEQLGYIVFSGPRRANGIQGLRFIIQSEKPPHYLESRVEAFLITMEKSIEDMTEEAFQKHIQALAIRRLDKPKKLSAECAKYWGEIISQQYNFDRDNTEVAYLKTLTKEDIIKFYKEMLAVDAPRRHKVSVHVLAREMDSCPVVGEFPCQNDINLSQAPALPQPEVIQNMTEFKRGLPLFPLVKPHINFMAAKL

Insulin-degrading enzyme [12] = molecular target: T4, Insulin-degrading enzyme; assay: activators of endogenous IDE in HEK cells, dose response, cell-based, fluorescence polarization (AID 588439); format: functional
HEK293 [13] = assay: HEK cell cytotoxicity by LDH release, dose response, cytotoxicity control for IDE activator project, fluorescence, HEK cells (AID 588440); format: functional, cell-based; conditions: Homo sapiens;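 also: cytotoxicity by LDH release measuring loss of membrane integrity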
[14] = molecular target: Dual specificity tyrosine-phosphorylation-regulated kinase 1A (Rattus norvegicus, UniProt Q63470); format: biochemical, Homo sapiens
HEK293 [15] = assay: optical interference in Abeta FP readout, dose response, artefact control for IDE activator project, biochemical, fluorescence polarization (AID 588442); format: functional, cell-based; conditions: Homo sapiens
Exodeoxyribonuclease V = Exodeoxyribonuclease V (Escherichia coli (strain K12), UniProt P04993+P07648+P08394); assay: E. coli RecBCD inhibitors, dose response, counter-screen for AddAB inhibitor project, absorbance, V66 E. coli, mutant T4 phage (AID 492957); format: functional, cell-based, Escherichia coli str. K-12 substr. MG1655
Nonstructural protein 1 = Nonstructural protein 1 (Influenza A virus, UniProt Q194T2); format: functional, Influenza A virus (A/California/07/2009(H1N1))
[16] = Counterscreen for AddAB inhibitors: absorbance-based bacterial cell-based high throughput dose response assay for inhibitors of bacterial viability. [Related pubchem assays (depositor defined):AID435030, AID449728, AID449731, AID488942, AID488955, AID488956]; format: functional
[17] = human group III sPLA2 inhibitors, dose response, biochemical, QFRET, IC50 (AID 743457);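 also: green fluorescence rise as the enzyme cleaves BODIPY PC-A2 in liposomes; potency for inhibition of the enzyme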

Sequence of Hexokinase (Q38C41 whole entry): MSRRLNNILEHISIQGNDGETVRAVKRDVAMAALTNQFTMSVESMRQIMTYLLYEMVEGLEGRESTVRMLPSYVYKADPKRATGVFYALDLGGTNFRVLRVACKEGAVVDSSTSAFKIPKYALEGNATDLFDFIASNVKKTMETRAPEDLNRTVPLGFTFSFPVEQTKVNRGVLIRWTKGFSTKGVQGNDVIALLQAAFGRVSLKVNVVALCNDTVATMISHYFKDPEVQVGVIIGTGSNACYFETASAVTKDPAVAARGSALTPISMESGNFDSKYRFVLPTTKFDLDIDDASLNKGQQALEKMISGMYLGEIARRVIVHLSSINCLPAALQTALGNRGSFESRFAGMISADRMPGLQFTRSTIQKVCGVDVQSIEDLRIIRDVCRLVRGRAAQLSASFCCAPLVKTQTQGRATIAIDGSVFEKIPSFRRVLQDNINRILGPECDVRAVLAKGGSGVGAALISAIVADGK
Sequence of Phosphoethanolamine/phosphocholine phosphatase (Q8TCT1 whole entry): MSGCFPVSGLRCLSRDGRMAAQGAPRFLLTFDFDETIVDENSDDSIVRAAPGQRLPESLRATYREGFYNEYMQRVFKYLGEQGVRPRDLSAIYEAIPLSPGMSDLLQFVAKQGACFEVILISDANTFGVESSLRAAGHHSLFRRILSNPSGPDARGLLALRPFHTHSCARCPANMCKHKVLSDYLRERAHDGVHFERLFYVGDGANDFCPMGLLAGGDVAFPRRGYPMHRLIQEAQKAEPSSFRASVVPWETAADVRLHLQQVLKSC
Sequence of Phosphomannomutase 2 (O15305 whole entry): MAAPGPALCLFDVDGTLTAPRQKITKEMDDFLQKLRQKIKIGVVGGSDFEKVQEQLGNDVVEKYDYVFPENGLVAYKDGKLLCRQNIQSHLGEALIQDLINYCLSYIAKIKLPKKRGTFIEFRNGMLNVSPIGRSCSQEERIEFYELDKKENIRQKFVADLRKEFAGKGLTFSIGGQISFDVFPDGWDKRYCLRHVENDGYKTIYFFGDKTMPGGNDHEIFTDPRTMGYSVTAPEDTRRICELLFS
Sequence of Cytochrome P450 2C19 (P33261 whole entry): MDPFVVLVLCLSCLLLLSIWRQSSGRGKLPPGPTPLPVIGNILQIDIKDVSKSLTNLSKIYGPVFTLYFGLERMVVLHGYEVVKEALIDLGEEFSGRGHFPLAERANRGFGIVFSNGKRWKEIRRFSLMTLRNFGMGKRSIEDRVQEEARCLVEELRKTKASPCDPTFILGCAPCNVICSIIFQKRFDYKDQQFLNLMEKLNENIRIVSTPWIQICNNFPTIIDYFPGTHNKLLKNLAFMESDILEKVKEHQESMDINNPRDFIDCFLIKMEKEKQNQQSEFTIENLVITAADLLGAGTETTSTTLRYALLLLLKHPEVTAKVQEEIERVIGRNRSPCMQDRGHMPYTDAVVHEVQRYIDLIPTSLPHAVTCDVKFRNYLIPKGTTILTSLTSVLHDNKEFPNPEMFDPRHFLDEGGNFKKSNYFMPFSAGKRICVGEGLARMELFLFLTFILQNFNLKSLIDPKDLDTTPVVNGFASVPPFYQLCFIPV
Sequence of Exodeoxyribonuclease V (P04993 whole entry): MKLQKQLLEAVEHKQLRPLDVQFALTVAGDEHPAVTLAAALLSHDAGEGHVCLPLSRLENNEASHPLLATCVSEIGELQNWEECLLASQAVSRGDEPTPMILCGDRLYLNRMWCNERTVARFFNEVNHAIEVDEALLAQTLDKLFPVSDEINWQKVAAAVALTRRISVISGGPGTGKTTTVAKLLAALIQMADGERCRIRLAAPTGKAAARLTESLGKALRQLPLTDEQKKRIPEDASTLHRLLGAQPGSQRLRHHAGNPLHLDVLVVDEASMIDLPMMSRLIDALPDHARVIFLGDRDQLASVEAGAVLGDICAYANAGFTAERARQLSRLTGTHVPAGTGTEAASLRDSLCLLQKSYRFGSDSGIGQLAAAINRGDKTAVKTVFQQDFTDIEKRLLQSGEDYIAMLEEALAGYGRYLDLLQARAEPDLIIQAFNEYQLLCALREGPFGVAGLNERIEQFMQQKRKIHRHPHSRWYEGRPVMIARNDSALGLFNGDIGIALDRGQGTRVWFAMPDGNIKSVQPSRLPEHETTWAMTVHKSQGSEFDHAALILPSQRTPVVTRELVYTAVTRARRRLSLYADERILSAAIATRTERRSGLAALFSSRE
Sequence of Exodeoxyribonuclease V (P07648 whole entry): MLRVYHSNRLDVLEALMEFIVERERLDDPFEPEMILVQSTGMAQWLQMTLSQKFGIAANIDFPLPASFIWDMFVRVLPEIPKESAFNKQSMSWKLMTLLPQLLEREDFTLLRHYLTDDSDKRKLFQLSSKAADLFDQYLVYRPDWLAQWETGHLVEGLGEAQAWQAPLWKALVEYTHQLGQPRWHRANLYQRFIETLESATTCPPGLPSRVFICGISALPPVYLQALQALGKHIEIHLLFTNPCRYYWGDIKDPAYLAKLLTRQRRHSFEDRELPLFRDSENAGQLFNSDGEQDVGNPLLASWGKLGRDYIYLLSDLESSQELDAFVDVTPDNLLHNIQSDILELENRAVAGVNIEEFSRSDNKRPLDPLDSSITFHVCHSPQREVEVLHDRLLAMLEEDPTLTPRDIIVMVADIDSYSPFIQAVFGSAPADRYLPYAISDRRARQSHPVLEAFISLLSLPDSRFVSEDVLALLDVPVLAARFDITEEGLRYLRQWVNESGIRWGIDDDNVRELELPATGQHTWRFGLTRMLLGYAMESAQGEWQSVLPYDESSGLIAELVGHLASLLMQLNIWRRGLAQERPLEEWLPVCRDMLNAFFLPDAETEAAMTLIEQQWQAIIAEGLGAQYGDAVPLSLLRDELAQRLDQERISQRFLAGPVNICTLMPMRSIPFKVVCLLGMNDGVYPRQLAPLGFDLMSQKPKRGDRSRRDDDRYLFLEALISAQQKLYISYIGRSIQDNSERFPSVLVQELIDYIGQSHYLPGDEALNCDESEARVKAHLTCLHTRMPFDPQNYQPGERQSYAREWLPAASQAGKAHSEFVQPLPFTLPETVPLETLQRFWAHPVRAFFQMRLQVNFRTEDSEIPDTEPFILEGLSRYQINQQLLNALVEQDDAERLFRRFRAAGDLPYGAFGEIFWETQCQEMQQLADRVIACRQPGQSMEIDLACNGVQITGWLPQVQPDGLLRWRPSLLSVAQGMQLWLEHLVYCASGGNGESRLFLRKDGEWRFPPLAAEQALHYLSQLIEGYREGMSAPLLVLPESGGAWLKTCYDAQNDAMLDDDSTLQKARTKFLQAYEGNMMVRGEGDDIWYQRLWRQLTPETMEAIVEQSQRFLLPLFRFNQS
Sequence of Exodeoxyribonuclease V (P08394 whole entry): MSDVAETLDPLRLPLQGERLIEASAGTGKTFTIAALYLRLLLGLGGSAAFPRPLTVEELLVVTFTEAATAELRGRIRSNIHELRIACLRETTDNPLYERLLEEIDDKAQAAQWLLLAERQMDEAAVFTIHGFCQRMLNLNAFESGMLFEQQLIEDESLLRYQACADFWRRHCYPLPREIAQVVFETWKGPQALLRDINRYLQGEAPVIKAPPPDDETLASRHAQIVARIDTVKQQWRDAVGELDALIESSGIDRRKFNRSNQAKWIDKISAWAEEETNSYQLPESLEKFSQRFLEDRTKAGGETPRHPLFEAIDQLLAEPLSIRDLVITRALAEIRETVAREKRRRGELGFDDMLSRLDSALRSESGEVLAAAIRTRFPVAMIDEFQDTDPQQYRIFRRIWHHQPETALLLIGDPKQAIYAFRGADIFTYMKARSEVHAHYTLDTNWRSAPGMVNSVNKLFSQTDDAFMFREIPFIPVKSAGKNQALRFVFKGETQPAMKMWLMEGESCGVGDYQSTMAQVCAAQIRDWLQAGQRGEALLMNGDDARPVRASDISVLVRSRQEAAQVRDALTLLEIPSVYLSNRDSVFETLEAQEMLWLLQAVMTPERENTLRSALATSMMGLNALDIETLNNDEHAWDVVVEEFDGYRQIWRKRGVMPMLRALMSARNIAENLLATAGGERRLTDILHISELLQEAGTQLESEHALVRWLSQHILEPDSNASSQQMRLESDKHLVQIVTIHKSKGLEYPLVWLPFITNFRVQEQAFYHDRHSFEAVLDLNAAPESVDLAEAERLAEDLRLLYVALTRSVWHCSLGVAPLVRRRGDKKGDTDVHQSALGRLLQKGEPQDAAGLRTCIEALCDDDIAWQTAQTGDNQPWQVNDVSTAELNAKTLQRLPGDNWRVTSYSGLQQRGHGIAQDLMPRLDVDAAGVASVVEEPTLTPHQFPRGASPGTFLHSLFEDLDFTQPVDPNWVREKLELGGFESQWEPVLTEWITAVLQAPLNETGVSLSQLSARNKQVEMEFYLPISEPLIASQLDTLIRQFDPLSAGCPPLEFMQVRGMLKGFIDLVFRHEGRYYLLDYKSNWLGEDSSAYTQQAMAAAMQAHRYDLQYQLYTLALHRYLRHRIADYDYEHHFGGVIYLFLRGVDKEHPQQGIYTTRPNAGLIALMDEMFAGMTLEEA
Sequence of Beta-lactamase (Salmonella choleraesuis (strain SC-B67), UniProt Q5J463) (Q5J463 whole entry): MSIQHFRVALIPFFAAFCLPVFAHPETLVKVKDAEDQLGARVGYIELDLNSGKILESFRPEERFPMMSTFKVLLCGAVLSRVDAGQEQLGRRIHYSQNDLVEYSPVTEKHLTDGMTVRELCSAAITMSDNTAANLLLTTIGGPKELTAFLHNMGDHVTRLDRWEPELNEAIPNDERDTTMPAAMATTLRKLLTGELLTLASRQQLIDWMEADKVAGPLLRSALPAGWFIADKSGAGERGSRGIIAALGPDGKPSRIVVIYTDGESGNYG
Sequence of G-protein coupled receptor 35 (Q9HC97 whole entry): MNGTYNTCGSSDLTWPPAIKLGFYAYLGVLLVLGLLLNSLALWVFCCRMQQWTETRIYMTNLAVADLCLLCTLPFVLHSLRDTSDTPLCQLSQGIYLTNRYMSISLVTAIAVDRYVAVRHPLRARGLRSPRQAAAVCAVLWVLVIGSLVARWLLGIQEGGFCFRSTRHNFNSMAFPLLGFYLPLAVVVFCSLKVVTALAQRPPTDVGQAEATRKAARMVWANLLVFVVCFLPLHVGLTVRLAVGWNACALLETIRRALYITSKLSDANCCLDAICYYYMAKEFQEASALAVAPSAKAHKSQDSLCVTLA

With `CCCCN1C(=O)NC(=O)/C(=C(O)\C=C\c2c[nH]c3ccccc23)C1=O` the IC50 [1] was 3.1 µM (active) and the EC50 [2] was 6.02 µM (active).

In the case of `Cc1ccc(OCC(=O)NNC(=O)CCC(=O)NCc2ccccc2)cc1`, the AC50 (Cytochrome P450 2C19) is reported as 0.00562 µM (inconclusive) and the AC50 (Cytochrome P450 2D6) is reported as “inconclusive”.

In the case of `Cc1onc(-c2ccccc2)c1C(=O)NNC(=S)NC(=O)/C=C/c1ccccc1`, the EC50 [3] is reported as 5.31 µM (active), the EC50 [4] is reported as 4.22 µM (active) and the EC50 [2] is reported as 3.32 µM (active).

With `N#Cc1ccc(NC(=O)Cn2sc3ccccc3c2=O)cc1` the IC50 (Hexokinase) was 6.97 µM (active).

In the case of `CCc1cc(C(c2cccc(OC)c2)N2CCOCC2)c(NC(=O)c2ccccc2)s1` (stereo not drawn), the EC50 [3] is reported as 1.88 µM (active).

With `CN(C)c1ccc(-n2sc3ccccc3c2=O)cc1` the IC50 [5] was 21.4 µM (active), the IC50 (Phosphomannomutase 2) was > 100 µM (inactive) and the IC50 [6] was 11.4 µM (inactive).

With `COc1cc(-c2nnc3sc(-c4cccs4)nn23)cc(OC)c1OC` the IC50 [7] was 1.64 µM (active) and the IC50 [8] was 13.9 µM (inactive).

For `CCCOc1ccccc1N=C(N)Nc1nc(C)cc(C)n1`, the IC50 [7] was 1.29 µM (active) and the IC50 [8] was 2.56 µM (active).

With `COCCCNc1c(O)nc2cccc3c2c1-c1ccccc1C3=O` the IC50 (Beta-lactamase [9]) was 2.11 µM (active), the IC50 (Beta-lactamase [10]) was 0.89 µM (active) and the AC50 (HeLa) was 66.1 µM (active). The AC50 (ORF 73) was 0.526 µM (active), the EC50 (Insulin-degrading enzyme [11]) was > 54.7 µM (inactive) and the EC50 (Insulin-degrading enzyme [12]) was > 54.7 µM (inactive). For the same compound, the IC50 (HEK293 [13]) was > 89.2 µM (inactive), the AC50 [14] was 1.57 µM (active) and the EC50 (HEK293 [15]) was > 54.7 µM (inactive).

In the case of `O=c1c2ccccc2sn1-c1cccc(S(=O)(=O)Nc2ccc(Cl)cc2)c1`, the IC50 [5] is reported as 1.59 µM (active), the IC50 (Phosphomannomutase 2) is reported as 9.44 µM (active) and the IC50 [6] is reported as 8.2 µM (inactive).

With `COc1ccc(C(=O)Nc2cc(Cl)ccc2[N+](=O)[O-])cc1` the IC50 (Hexokinase) was > 25 µM (inactive).

In the case of `O=C(NC(=S)NNC(=O)c1ccccc1O)c1cccs1`, the IC50 (Exodeoxyribonuclease V) is reported as 79.9 µM (inactive), the IC50 (Nonstructural protein 1) is reported as 10.6 µM (active) and the IC50 [16] is reported as 66.1 µM (inactive). The IC50 [17] was > 122 µM (inactive).
